Experimental data from ChEMBL document CHEMBL2074299, “Hepatic uptake of the novel antifungal agent caspofungin” (Drug Metab Dispos, 2005).
Blank lines part the entries; values can stand above or below the molecule they belong to.

Columns and labels:
Type in all cases: functional, cell-based
[1] = molecular target: T1, Solute carrier family 22 member 6 (Homo sapiens, UniProt Q4U2R8); experiment: TP_TRANSPORTER: inhibition of p-amino hippurate uptake (Caspofungin:100 uM) in OAT1-expressing HeLa cells; parameters: scale not given: the % may be the effect or the level left
T1 sequence (Q4U2R8 whole entry): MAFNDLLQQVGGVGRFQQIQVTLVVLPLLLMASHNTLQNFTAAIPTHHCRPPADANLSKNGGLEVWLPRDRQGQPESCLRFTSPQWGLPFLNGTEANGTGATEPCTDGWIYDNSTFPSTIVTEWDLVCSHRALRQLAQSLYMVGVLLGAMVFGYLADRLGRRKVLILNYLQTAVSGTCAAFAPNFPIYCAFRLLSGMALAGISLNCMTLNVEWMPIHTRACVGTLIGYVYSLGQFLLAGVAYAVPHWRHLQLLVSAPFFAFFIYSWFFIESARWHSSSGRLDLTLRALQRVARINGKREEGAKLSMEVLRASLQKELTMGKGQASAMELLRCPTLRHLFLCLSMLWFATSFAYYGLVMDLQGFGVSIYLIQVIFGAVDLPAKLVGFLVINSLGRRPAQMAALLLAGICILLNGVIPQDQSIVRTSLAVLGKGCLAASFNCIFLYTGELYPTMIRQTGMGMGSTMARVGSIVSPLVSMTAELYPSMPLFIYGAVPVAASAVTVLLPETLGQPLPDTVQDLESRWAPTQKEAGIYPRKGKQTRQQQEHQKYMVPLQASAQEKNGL

[2] = molecular target: T2, OCT1 (solute carrier family 22 member 1) (Homo sapiens, UniProt O15245); experiment: TP_TRANSPORTER: inhibition of Tetraethyl ammonium uptake (Caspofungin:100 uM) in OCT1-expressing HeLa cells; parameters: scale not given: the % may be the effect or the level left; settings: HeLa cells that express OCT1, probe tetraethyl ammonium, read-out: Activity
T2 sequence (O15245 whole entry): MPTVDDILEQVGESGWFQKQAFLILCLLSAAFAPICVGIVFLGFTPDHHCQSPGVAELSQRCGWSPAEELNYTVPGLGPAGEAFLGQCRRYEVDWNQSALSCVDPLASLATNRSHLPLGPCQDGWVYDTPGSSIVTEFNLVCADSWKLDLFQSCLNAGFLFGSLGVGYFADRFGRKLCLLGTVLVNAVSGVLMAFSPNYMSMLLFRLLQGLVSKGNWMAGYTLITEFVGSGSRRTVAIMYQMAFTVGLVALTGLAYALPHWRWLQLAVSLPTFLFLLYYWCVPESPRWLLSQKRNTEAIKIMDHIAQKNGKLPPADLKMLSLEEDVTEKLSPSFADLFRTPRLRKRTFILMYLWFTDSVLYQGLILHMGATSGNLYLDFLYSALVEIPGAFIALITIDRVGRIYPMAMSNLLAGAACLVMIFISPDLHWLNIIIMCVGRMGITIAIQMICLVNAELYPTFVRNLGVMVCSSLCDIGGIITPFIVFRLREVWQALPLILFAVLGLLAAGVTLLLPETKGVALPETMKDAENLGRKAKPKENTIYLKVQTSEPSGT

[3] = molecular target: T3, Solute carrier organic anion transporter family member 1B1 (Homo sapiens, UniProt Q9Y6L6); experiment: TP_TRANSPORTER: uptake in OATP1B1-expressing Tet-on HeLa cells
T3 sequence (Q9Y6L6 whole entry): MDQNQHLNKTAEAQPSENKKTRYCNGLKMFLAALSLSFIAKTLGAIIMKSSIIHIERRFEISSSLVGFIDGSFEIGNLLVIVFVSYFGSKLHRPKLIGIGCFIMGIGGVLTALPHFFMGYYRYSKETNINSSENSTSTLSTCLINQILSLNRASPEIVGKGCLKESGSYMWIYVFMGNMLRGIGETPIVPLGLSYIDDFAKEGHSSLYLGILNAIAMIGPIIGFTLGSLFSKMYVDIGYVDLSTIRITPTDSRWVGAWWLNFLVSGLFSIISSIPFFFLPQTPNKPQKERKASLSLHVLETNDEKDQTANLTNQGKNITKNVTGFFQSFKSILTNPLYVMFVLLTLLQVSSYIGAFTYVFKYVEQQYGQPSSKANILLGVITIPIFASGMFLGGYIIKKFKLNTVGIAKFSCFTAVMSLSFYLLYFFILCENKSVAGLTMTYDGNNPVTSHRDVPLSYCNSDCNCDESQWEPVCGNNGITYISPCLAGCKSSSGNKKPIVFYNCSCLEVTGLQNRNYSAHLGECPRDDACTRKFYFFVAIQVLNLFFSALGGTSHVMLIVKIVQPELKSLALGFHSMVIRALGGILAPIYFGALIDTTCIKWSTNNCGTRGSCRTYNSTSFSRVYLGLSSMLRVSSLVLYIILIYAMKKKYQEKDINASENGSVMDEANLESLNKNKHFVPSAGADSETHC

[4] = molecular target: T3, Solute carrier organic anion transporter family member 1B1; experiment: TP_TRANSPORTER: inhibition of estradiol-17beta-D-glucuronide uptake (Caspofungin:100 uM) in OATP1B1-expressing HeLa cells; parameters: scale not given: the % may be the effect or the level left
[5] = molecular target: T4, Solute carrier organic anion transporter family member 1B3 (Homo sapiens, UniProt Q9NPD5); experiment: TP_TRANSPORTER: uptake in OATP1B3-expressing Tet-on HeLa cells
T4 sequence (Q9NPD5 whole entry): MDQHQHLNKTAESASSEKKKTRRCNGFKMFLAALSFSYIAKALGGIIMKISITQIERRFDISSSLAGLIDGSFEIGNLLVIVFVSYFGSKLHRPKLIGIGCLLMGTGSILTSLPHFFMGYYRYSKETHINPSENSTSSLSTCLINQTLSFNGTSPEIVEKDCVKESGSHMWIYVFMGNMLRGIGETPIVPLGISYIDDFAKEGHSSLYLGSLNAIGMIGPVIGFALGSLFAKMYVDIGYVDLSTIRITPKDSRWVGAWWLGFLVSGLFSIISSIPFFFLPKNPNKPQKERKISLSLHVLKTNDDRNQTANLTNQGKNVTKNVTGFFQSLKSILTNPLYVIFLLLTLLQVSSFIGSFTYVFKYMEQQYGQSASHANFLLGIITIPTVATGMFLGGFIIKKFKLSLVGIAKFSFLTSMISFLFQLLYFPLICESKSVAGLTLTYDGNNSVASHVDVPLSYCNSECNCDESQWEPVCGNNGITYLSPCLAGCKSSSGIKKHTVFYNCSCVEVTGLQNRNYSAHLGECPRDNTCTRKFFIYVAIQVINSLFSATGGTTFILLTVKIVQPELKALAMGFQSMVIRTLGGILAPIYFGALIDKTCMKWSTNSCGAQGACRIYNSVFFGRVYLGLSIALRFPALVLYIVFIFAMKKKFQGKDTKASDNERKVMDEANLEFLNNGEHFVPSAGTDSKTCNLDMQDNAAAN

[6] = molecular target: T5, NTCP (hepatic sodium/bile acid cotransporter) (Homo sapiens, UniProt Q14973); experiment: TP_TRANSPORTER: inhibition of Taurocholate uptake (Caspofungin:100 uM) in NTCP-expressing HeLa cells; parameters: scale not given: the % may be the effect or the level left; settings: HeLa cells that express NTCP, probe taurocholate, read-out: Activity
T5 sequence (Q14973 whole entry): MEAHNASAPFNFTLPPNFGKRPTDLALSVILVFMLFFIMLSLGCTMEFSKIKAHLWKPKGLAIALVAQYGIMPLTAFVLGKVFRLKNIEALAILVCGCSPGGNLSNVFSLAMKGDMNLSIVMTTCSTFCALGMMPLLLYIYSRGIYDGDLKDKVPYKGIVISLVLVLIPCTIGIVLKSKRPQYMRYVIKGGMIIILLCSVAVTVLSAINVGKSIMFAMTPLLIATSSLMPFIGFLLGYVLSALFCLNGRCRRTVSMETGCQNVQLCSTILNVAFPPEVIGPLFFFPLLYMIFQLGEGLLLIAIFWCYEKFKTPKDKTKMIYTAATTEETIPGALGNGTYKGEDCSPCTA

[7] = molecular target: ATP-dependent translocase ABCB1 (Homo sapiens, UniProt P08183); experiment: TP_TRANSPORTER: cell accumulation of vinblastine in KB-V1 cells
Sequence of ATP-dependent translocase ABCB1 (P08183 whole entry): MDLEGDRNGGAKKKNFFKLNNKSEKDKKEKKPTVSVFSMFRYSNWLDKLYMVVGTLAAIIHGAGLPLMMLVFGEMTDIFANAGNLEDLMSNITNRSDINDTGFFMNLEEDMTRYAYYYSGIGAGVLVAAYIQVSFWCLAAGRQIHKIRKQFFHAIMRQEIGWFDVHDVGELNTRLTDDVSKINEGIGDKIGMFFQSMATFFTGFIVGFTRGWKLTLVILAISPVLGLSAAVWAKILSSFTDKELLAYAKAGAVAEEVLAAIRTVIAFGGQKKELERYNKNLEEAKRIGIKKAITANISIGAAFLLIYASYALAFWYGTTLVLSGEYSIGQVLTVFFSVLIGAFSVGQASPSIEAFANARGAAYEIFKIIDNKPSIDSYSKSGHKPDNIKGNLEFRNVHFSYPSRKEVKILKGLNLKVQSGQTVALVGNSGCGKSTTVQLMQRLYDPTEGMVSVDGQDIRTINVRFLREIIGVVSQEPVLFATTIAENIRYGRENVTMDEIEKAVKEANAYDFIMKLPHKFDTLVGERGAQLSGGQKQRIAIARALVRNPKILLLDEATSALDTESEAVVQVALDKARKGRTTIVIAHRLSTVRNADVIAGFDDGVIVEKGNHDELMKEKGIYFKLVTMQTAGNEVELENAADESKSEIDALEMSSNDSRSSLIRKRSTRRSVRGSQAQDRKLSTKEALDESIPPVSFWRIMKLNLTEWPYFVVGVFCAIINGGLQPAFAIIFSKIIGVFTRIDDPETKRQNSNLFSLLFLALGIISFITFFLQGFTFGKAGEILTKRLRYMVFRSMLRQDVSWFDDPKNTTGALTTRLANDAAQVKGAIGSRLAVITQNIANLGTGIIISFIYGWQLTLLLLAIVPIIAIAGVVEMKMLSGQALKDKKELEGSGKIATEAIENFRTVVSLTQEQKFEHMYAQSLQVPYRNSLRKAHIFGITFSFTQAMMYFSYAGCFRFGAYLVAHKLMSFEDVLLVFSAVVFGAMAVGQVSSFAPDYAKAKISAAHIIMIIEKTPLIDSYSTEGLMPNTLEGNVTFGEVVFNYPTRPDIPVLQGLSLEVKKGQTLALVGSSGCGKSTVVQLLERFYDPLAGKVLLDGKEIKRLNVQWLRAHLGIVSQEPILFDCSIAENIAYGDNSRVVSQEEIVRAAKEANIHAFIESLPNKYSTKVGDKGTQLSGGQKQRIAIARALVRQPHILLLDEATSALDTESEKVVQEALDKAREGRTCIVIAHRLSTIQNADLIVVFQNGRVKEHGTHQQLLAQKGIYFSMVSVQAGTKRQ

[8] = molecular target: T1, Solute carrier family 22 member 6; experiment: TP_TRANSPORTER: inhibition of p-amino hippurate uptake (Indomethacin:100 uM) in OAT1-expressing HeLa cells; parameters: scale not given: the % may be the effect or the level left
[9] = molecular target: T6, OATP1B1 (solute carrier organic anion transporter family member 1B1) (Homo sapiens, UniProt Q9Y6L6); experiment: TP_TRANSPORTER: inhibition of estradiol-17beta-D-glucuronide uptake (Lovastatin:10 uM) in OATP1B1-expressing HeLa cells; parameters: scale not given: the % may be the effect or the level left; settings: HeLa cells that express OATP1B1, probe estradiol-17beta-D-glucuronide, read-out: Activity
T6 sequence (Q9Y6L6 whole entry): T3 sequence (Q9Y6L6 whole entry)

[10] = molecular target: T2, OCT1 (solute carrier family 22 member 1); experiment: TP_TRANSPORTER: inhibition of Tetraethyl ammonium uptake (Quinidine:100 uM) in OCT1-expressing HeLa cells; parameters: scale not given: the % may be the effect or the level left; settings: HeLa cells that express OCT1, probe tetraethyl ammonium, read-out: Activity
[11] = molecular target: T5, NTCP (hepatic sodium/bile acid cotransporter); experiment: TP_TRANSPORTER: inhibition of Taurocholate uptake (Ursodeoxycholate:10 micro;M) in NTCP-expressing HeLa cells; parameters: scale not given: the % may be the effect or the level left; settings: HeLa cells that express NTCP, probe taurocholate, read-out: Activity

SMILES: CC[C@H](C)C[C@H](C)CCCCCCCCC(=O)N[C@H]1C[C@@H](O)[C@@H](NCCN)NC(=O)[C@@H]2[C@@H](O)CCN2C(=O)[C@H]([C@H](O)CCN)NC(=O)[C@H]([C@H](O)[C@@H](O)c2ccc(O)cc2)NC(=O)[C@@H]2C[C@@H](O)CN2C(=O)[C@H]([C@@H](C)O)NC1=O [CASPOFUNGIN]
Activity [1]: 40%
activity at 100 µM [2]: 30%
Activity [3]: substrate [+]
Activity [4]: 5%
Activity [5]: is not a substrate [-]
activity at 100 µM [6]: 10%
Activity [7]: inhibitor [+]

SMILES: COc1ccc2c(c1)c(CC(=O)O)c(C)n2C(=O)c1ccc(Cl)cc1 [INDOMETHACIN]
Activity [8]: 20%

SMILES: C[C@H](CCC(=O)O)[C@H]1CC[C@H]2[C@@H]3[C@@H](O)C[C@@H]4C[C@H](O)CC[C@]4(C)[C@H]3CC[C@]12C [URSODIOL]
activity at 10 µM [11]: 30%

Further lines, results first:

activity at 10 µM [9]: 40%
SMILES: CC[C@H](C)C(=O)O[C@H]1C[C@@H](C)C=C2C=C[C@H](C)[C@H](CC[C@@H]3C[C@@H](O)CC(=O)O3)[C@H]21 [LOVASTATIN]

activity at 100 µM [10]: 20%
SMILES: C=C[C@H]1C[N@@]2CC[C@H]1C[C@@H]2[C@@H](O)c1ccnc2ccc(OC)cc12 [QUINIDINE]
